These results are taken from patent publication US20100028259A1, “USE OF ORGANIC CATION TRANSPORTERS FOR CANCER DIAGNOSIS AND THERAPY” (The Regents of the University of California, priority 2006, published 2010).

Read-outs that look alike come from different tables or passages of the source.

For one series, the system named is MDCK-hOCT1 cells. The series can be described thus: MTT drug sensitivity assay in MDCK-hOCT1 cells. Type of series: cell-based, canine. The protocol: Cytotoxicity of the platinum-based compounds was measured by MTT (thiazolyl blue tetrazolium bromide) assay. Cells were seeded in 100 μl of the culture medium without any antibiotics in 96-well plates at a predetermined cell density. For HEK 293 cells, poly-D-lysine coated plates were used. […] For the OCT inhibitor studies, the inhibitors (i.e., disopyramide or cimetidine) were added to the medium at a specified concentration immediately before the addition of the platinum-based compounds. After incubation for a specified time period, the drug-containing medium was replaced with fresh, drug-free medium and the incubation was continued for a total of 72 hours (start from the addition of platinum-based compounds). Then, the MTT assay was performed similarly as described in Alley et al., Cancer Res., 48:589-601 (1988). […] The maximal cell growth was the cell growth in the medium without any platinum-based compounds; C is the concentration of the platinum-based compound, and γ is the slope factor.
Briefly, the cells were seeded in 96-well plates at a density of 5,000 cells/well for the transfected MDCK cells or 12,000 cells/well for the transfected HEK 293 cells. The platinum-based drugs were added on the following day. After the specified time periods of drug exposure, the drug-containing medium was replaced with fresh, drug-free medium, and the incubation was continued for a total of 72 hours (start from the time when the drug was added). After incubation, the cell growth was determined by an MTT assay. Data are expressed as mean±SD from 3 to 6 independent experiments with each performed in quadruplicate. The resistance factor (RF) was defined as the ratio of the mean IC50 value in the MOCK cells to that in the OCT-transfected cells.
Briefly, MDCK cells were seeded at a density of 5,000 cells/well in 96-well plates and exposed to the test compounds for 7 hours on the following day. After incubation for a total of 72 hours, the cell growth was determined by an MTT assay. The data for carboplatin was taken from Table 1 and was not determined simultaneously with the other compounds. The resistance factor (RF) was defined as the ratio of the mean IC50 value in MDCK-MOCK cells to that in MDCK-hOCT1 cells. Data are expressed as mean±SD from six measurements, and each measurement was performed in quadruplicate.

The next series deals with HEK-MOCK cells. The series can be described thus: Cellular accumulation of platinum in HEK-MOCK cells (ICP-MS). The series is classed as in vitro ADME, human. The settings on record: cimetidine 1.5 mM. As to the method:
(§1) For the inhibitor studies, the incubation medium also contained disopyramide (150 μM). […] For the inhibitor studies, the incubation medium also contained cimetidine (1.5 mM). […] After drug exposure, the cells were washed with ice-cold PBS three times and harvested by scraping and centrifugation. The cell-associated platinum was determined by ICP-MS and normalized for protein content. Data are expressed as mean±SD from a single experiment performed in triplicate. Experiments were replicated for OCT1 and OCT2, and similar results were obtained.
The cellular accumulation of platinum was determined as described in Holzer et al., Mol. Pharmacol., 66:817-823 (2004) with some modifications. Briefly, the cells were grown in 100 mm×20 mm dishes in the culture medium without any antibiotics to over 90% confluence. For HEK 293 cells, poly-D-lysine coated dishes were used. For platinum accumulation, the cells were incubated in the culture medium containing the indicated concentrations of the platinum compounds at 37° C. in 5% CO2 for 2 hr unless specified. […] The platinum content was measured by inductively plasma coupled mass spectrometry (ICP-MS) in the Analytical Facility at the University of California at Santa Cruz (Santa Cruz, Calif.). […]

A further series relates to HEK-hOCT2 cells. Kind of series: Cellular accumulation of platinum in HEK-hOCT2 cells (ICP-MS). The series is classed as in vitro ADME, human. The settings on record: 2-hr exposure. As to the method: as §1
The cellular accumulation of platinum was determined as described in Holzer et al., Mol. Pharmacol., 66:817-823 (2004) with some modifications. Briefly, the cells were grown in 100 mm×20 mm dishes in the culture medium without any antibiotics to over 90% confluence. For HEK 293 cells, poly-D-lysine coated dishes were used. For platinum accumulation, the cells were incubated in the culture medium containing the indicated concentrations of the platinum compounds at 37° C. in 5% CO2 for 2 hr unless specified. After incubation, the dishes were immediately placed on ice and the cells were washed with 6 ml of ice-cold PBS for three times and collected with a rubber policeman. The cell pellets were obtained by centrifugation at 400×g and at 4° C. for 15 min. For the OCT inhibitor studies, the incubation medium also contained the indicated inhibitor (i.e., disopyramide or cimetidine) in addition to the platinum-based compounds. The resulting cell pellets were then dissolved into 200 μl of 70% nitric acid at 65° C. for at least 2.5 hours, and then distilled water containing 10 ppb of iridium (Sigma) and 0.1% Triton X-100 was added to the samples to dilute nitric acid to 7%. The platinum content was measured by inductively plasma coupled mass spectrometry (ICP-MS) in the Analytical Facility at the University of California at Santa Cruz (Santa Cruz, Calif.). Cell lysates from a set of identical cultures were used for BCA protein assay.

In the next series the test system is MDCK-MOCK cells. The series can be described thus: Platinum-DNA adduct formation in MDCK-MOCK cells. Type of series: cell-based, canine. The protocol:
After incubation at 37° C. and 5% CO2 for 2 hours, the cells were washed with ice-cold PBS three times and harvested. The genomic DNA was isolated from the cells and the platinum content associated with DNA was determined by ICP-MS and normalized for DNA content. Data are expressed as mean±SD from a typical experiment performed in triplicate. Two independent experiments were conducted and similar results were obtained.
After incubation, the cells were washed with ice-cold PBS three times and harvested. Genomic DNA was isolated from the harvested cells and the DNA-associated platinum content was determined by ICP-MS and normalized for the DNA content. Data are expressed as mean±SD of three measurements.
The platinum content associated with genomic DNA was determined as described in Samimi et al., Clin. Cancer Res., 10:4661-4669 (2004) with some modifications. Briefly, the cells were grown in 100 mm×20 mm dishes in the culture medium without any antibiotics to over 90% confluence. For HEK 293 cells, poly-D-lysine coated dishes were used. Then, the cells were incubated in the culture medium containing the specified concentrations of the platinum-based compounds at 37° C. in 5% CO2 for 2 hours (or 25 min as specified). In some experiments, phosphate buffer (PB: 1.06 mM KH2PO4, 2.97 mM Na2HPO4, pH 7.4) containing 155 mM NaCl (PB—Cl buffer) or 103 mM Na2SO4 (PB—SO4 buffer) was used instead of the culture medium as specified. For the OCT inhibitor study, the incubation medium (buffer) also contained disopyramide or cimetidine). If PB—Cl or PB—SO4 buffer was used, the cells were washed with the same buffer once before drug incubation. After incubation, the cells were washed with ice-cold PBS, scraped, and pelleted. Genomic DNA was isolated from the cell pellets using the Wizard® Genomic DNA Purification Kit (Promega, Madison, Wis.) following the manufacturer's instructions. Briefly, the cells were lysed with Nuclei Lysis Solution. After RNA digestion and protein precipitation, the lysates were centrifuged and the resulting supernatant was aliquoted. The genomic DNA prepared from two different aliquots of the supernatant was used for platinum and DNA content determination, respectively. For the determination of platinum, the DNA samples were treated with 70% nitric acid at 65° C. and diluted in the same way as described above. The platinum content was analyzed using ICP-MS and the DNA content was measured by absorption spectroscopy.

Take `O=C1[O][Pt]2([NH][C@@H]3CCCC[C@H]3[NH]2)[O]C1=O` [oxaliplatin]: the IC50 – broadly, the concentration at which inhibition is half-maximal – in the series on MDCK-hOCT1 cells (SAR study Table 4, 7 hours of drug exposure, read-out: IC50 MDCK-hOCT1) amounted to 480 ± 190 nM; in the series on MDCK-hOCT1 cells (co-incubation with disopyramide 150 μM, read-out: IC50 in MDCK-hOCT1, disopyramide-treated), 22800 ± 10500 nM; in the series on MDCK-hOCT1 cells (disopyramide study (FIG. 2D), without disopyramide, read-out: IC50 in MDCK-hOCT1, control), 3790 ± 1570 nM; in the series with MDCK-hOCT1 cells (drug exposure 7 hour, MTT at 72 hours, Table 1, read-out: IC50 MDCK-hOCT1) it was 3890 ± 1300 nM; in the series on MDCK-hOCT1 cells (drug exposure 24 hour, MTT at 72 hours, Table 1, read-out: IC50 MDCK-hOCT1), 1790 ± 580 nM; in the series with MDCK-hOCT1 cells (drug exposure 72 hour, Table 1, read-out: IC50 MDCK-hOCT1) it was 1680 ± 270 nM. Also, the “effect of cimetidine on platinum accumulation / cellular uptake in HEK-MOCK” value with HEK-MOCK cells is given as “significant decrease”. Also, the “cellular platinum accumulation rate in HEK-hOCT2, cimetidine” value with HEK-hOCT2 cells (0.3 μM, cimetidine 1.5 mM) was 1.80±0.13 pmol/mg protein-hr. The “cellular platinum accumulation rate in HEK-hOCT2” value in the series on HEK-hOCT2 cells (drug 0.3 μM) is 20.2±1.54 pmol/mg protein-hr. Also, in the series on MDCK-MOCK cells (20 μM, PB—Cl, 25 min), the “DNA-associated platinum level in MDCK-MOCK” value stood at 0.0034±0.00087 pmol/μg DNA. Besides, the “rb in MDCK-MOCK” value in the series on MDCK-MOCK cells (20 μM, PB—Cl, 25 min) was 1.12±0.29×10^−6; with MDCK-MOCK cells (20 μM, PB—SO4, 25 min), 1.05±0.14×10^−6. Besides, the “Pt-DNA adduct level in MDCK-MOCK” value with MDCK-MOCK cells (20 μM, PB—SO4, 25 min) stood at 0.0032±0.00042 pmol/μg DNA. Moreover, the “platinum-DNA adduct level in MDCK-MOCK” value in the series on MDCK-MOCK cells (2-hr exposure, oxaliplatin 10 μM, culture medium) stood at 0.0110±0.0010 pmol/μg DNA. Further, the “effect of disopyramide on platinum-DNA adduct formation in MDCK-MOCK” value in the series on MDCK-MOCK cells (disopyramide 150 μM) is listed as “no effect”.
